Activity calls are given as the source filed them. How the calls were made is not given here.
Tested on: CCRIS mutagenicity, Ames/micronucleus/aberration tests
Experiment: CCRIS mutagenicity studies
[1] = Test System: AMES SALMONELLA TYPHIMURIUM, Strain/Indicator: TA98, Metabolic Activation: NONE, Method: STANDARD PLATE
[2] = Test System: AMES SALMONELLA TYPHIMURIUM, Strain/Indicator: TA98, Metabolic Activation: RAT, LIVER, S-9, AROCLOR 1254, Method: STANDARD PLATE
[3] = Test System: AMES SALMONELLA TYPHIMURIUM, Strain/Indicator: TA100, Metabolic Activation: NONE, Method: STANDARD PLATE
[4] = Test System: AMES SALMONELLA TYPHIMURIUM, Strain/Indicator: TA100, Metabolic Activation: RAT, LIVER, S-9, AROCLOR 1254, Method: STANDARD PLATE
[5] = Test System: AMES SALMONELLA TYPHIMURIUM, Strain/Indicator: TA1535, Metabolic Activation: NONE, Method: STANDARD PLATE
[6] = Test System: AMES SALMONELLA TYPHIMURIUM, Strain/Indicator: TA1535, Metabolic Activation: RAT, LIVER, S-9, AROCLOR 1254, Method: STANDARD PLATE
[7] = Test System: AMES SALMONELLA TYPHIMURIUM, Strain/Indicator: TA1537, Metabolic Activation: NONE, Method: STANDARD PLATE
[8] = Test System: AMES SALMONELLA TYPHIMURIUM, Strain/Indicator: TA1537, Metabolic Activation: RAT, LIVER, S-9, AROCLOR 1254, Method: STANDARD PLATE

Measured: mutagenic call

Cc1noc(NS(=O)(=O)c2ccc(N)cc2)c1C
inactive: End Point: IN VITRO CHROMOSOMAL ABERRATIONS, Test System: CHO CELLS, Metabolic Activation: NONE inactive; negative | End Point: IN VITRO CHROMOSOMAL ABERRATIONS, Test System: CHO CELLS, Metabolic Activation: RAT, LIVER, S-9, AROCLOR 1254 inactive; negative | Test System: AMES SALMONELLA TYPHIMURIUM, Strain/Indicator: TA97, Metabolic Activation: HAMSTER, LIVER, S-9, AROCLOR 1254 (10 OR 30%), Method: PREINCUBATION inactive; negative | Test System: AMES SALMONELLA TYPHIMURIUM, Strain/Indicator: TA97, Metabolic Activation: NONE, Method: PREINCUBATION inactive; negative | Test System: AMES SALMONELLA TYPHIMURIUM, Strain/Indicator: TA97, Metabolic Activation: RAT, LIVER, S-9, AROCLOR 1254 (10 OR 30%), Method: PREINCUBATION inactive; negative | Test System: AMES SALMONELLA TYPHIMURIUM, Strain/Indicator: TA98, Metabolic Activation: HAMSTER, LIVER, S-9, AROCLOR 1254 (10 OR 30%), Method: PREINCUBATION inactive; negative | Test System: AMES SALMONELLA TYPHIMURIUM, Strain/Indicator: TA98, Metabolic Activation: NONE, Method: PREINCUBATION inactive; negative | Test System: AMES SALMONELLA TYPHIMURIUM, Strain/Indicator: TA98, Metabolic Activation: RAT, LIVER, S-9, AROCLOR 1254 (10 OR 30%), Method: PREINCUBATION inactive; negative | Test System: AMES SALMONELLA TYPHIMURIUM, Strain/Indicator: TA100, Metabolic Activation: HAMSTER, LIVER, S-9, AROCLOR 1254 (10 OR 30%), Method: PREINCUBATION inactive; negative | Test System: AMES SALMONELLA TYPHIMURIUM, Strain/Indicator: TA100, Metabolic Activation: NONE, Method: PREINCUBATION inactive; negative | Test System: AMES SALMONELLA TYPHIMURIUM, Strain/Indicator: TA100, Metabolic Activation: RAT, LIVER, S-9, AROCLOR 1254 (10 OR 30%), Method: PREINCUBATION inactive; negative | Test System: AMES SALMONELLA TYPHIMURIUM, Strain/Indicator: TA1535, Metabolic Activation: HAMSTER, LIVER, S-9, AROCLOR 1254 (10 OR 30%), Method: PREINCUBATION inactive; negative | Test System: AMES SALMONELLA TYPHIMURIUM, Strain/Indicator: TA1535, Metabolic Activation: NONE, Method: PREINCUBATION inactive; negative | Test System: AMES SALMONELLA TYPHIMURIUM, Strain/Indicator: TA1535, Metabolic Activation: RAT, LIVER, S-9, AROCLOR 1254 (10 OR 30%), Method: PREINCUBATION inactive; negative | Test System: E. COLI, Strain/Indicator: WP2 UVRA, Metabolic Activation: HAMSTER, LIVER, S-9, AROCLOR 1254, Method: STANDARD PLATE inactive; negative | Test System: E. COLI, Strain/Indicator: WP2 UVRA, Metabolic Activation: HAMSTER, LIVER, S-9, Method: STANDARD PLATE inactive; negative | Test System: E. COLI, Strain/Indicator: WP2 UVRA, Metabolic Activation: MOUSE, LIVER, S-9, AROCLOR 1254, Method: STANDARD PLATE inactive; negative | Test System: E. COLI, Strain/Indicator: WP2 UVRA, Metabolic Activation: MOUSE, LIVER, S-9, Method: STANDARD PLATE inactive; negative | Test System: E. COLI, Strain/Indicator: WP2 UVRA, Metabolic Activation: NONE, Method: STANDARD PLATE inactive; negative | Test System: E. COLI, Strain/Indicator: WP2 UVRA, Metabolic Activation: RAT, LIVER, S-9, AROCLOR 1254, Method: STANDARD PLATE inactive; negative | Test System: E. COLI, Strain/Indicator: WP2 UVRA, Metabolic Activation: RAT, LIVER, S-9, Method: STANDARD PLATE inactive; negative

Cc1ccc(N=Cc2cccc3cccnc23)c(C(=O)O)c1
inactive: [1] inactive; negative | [2] inactive; negative | [3] inactive; negative | [4] inactive; negative | [5] inactive; negative | [6] inactive; negative | [7] inactive; negative | [8] inactive; negative

Clc1cc(Cl)c(Cl)cc1Cl
inactive: End Point: IN VITRO CHROMOSOMAL ABERRATIONS, Test System: CHO-LB CELLS, Metabolic Activation: NONE inactive; negative | End Point: IN VITRO CHROMOSOMAL ABERRATIONS, Test System: CHO-LB CELLS, Metabolic Activation: RAT, LIVER, S-9, AROCLOR 1254 inactive; negative | Test System: AMES SALMONELLA TYPHIMURIUM, Strain/Indicator: TA98, Metabolic Activation: HAMSTER, LIVER, S-9, AROCLOR 1254, Method: STANDARD PLATE inactive; negative | [1] inactive; negative | [2] inactive; negative | Test System: AMES SALMONELLA TYPHIMURIUM, Strain/Indicator: TA100, Metabolic Activation: HAMSTER, LIVER, S-9, AROCLOR 1254, Method: STANDARD PLATE inactive; negative | [3] inactive; negative | [4] inactive; negative | Test System: AMES SALMONELLA TYPHIMURIUM, Strain/Indicator: TA1535, Metabolic Activation: HAMSTER, LIVER, S-9, AROCLOR 1254, Method: STANDARD PLATE inactive; negative | [5] inactive; negative | [6] inactive; negative | Test System: AMES SALMONELLA TYPHIMURIUM, Strain/Indicator: TA1537, Metabolic Activation: HAMSTER, LIVER, S-9, AROCLOR 1254, Method: STANDARD PLATE inactive; negative | [7] inactive; negative | [8] inactive; negative | Test System: AMES SALMONELLA TYPHIMURIUM, Strain/Indicator: TA1538, Metabolic Activation: HAMSTER, LIVER, S-9, AROCLOR 1254, Method: STANDARD PLATE inactive; negative | Test System: AMES SALMONELLA TYPHIMURIUM, Strain/Indicator: TA1538, Metabolic Activation: NONE, Method: STANDARD PLATE inactive; negative | Test System: AMES SALMONELLA TYPHIMURIUM, Strain/Indicator: TA1538, Metabolic Activation: RAT, LIVER, S-9, AROCLOR 1254, Method: STANDARD PLATE inactive; negative | Test System: MOUSE LYMPHOMA, Strain/Indicator: L5178Y (TK+/TK-), Metabolic Activation: NONE, Method: SUSPENSION/PLATE inactive; negative. reevaluation of results: negative | Test System: MOUSE LYMPHOMA, Strain/Indicator: L5178Y (TK+/TK-), Metabolic Activation: RAT, LIVER, S-9, AROCLOR 1254, Method: SUSPENSION/PLATE inactive; negative. reevaluation of results: negative

— PubChem BioAssay AID1259407 (Chemical Carcinogenesis Research Information System (CCRIS), 2018)
